Data taken from PubChem BioAssay AID179 (DTP/NCI, 2004).
pEC50, pIC50: −log10 of the molar value. Several values for one entry are separate records, joined by “and”; a condition that tells them apart may be missing. Equal values may be shown once. Activity calls are given as the source filed them.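 Rule for the calls: active = compounds giving half or more protection of infected cells from virus-caused growth loss, again on retest; inactive = the rest.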 Where a SMILES comes first, the peptide text is derived from it. The star is where a group is joined. Boc = CC(C)(C)OC(=O)*

Tested on: CEM cells HIV-1 protection, formazan growth assay
Assay: NCI AIDS Antiviral Assay
Conditions: for pIC50: measured here: growth of uninfected CEM cells
Summary of the method: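 Human CEM cells, uninfected and HIV-1-infected, exposed to five drug concentrations; growth measured by soluble formazan assay and scored as percent protection from infection, with protecting compounds retested.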

## CCNc1cc2oc(=O)cc(C)c2cc1C
  pEC50: < 4.48
  pIC50: < 4.48

## CC1=C(O[Si](C(C)C)(C(C)C)C(C)C)C2CC1(OS(=O)(=O)C(F)(F)F)[C@H]1C(=O)N(c3ccccc3)C(=O)[C@@H]21 (stereo partly specified)
  pEC50: < 5.32
  pIC50: < 5.32

## O=C(Cc1nc2ccccc2s1)C(=O)Nc1ccccc1C(F)(F)F
  pEC50: < 4.15
  pIC50: < 4.15

## O=C1NC(N/N=C\c2ccccc2)=N/C1=C/c1ccc(Cl)cc1
  outcome: inactive

## CCCCc1ccc(-n2c3nc(=O)n(C)c(=O)c-3nc3ccccc32)cc1
  outcome: inactive

## COc1cc2c(cc1OC)C(CC1=C(c3ccccc3)CN3CCc4cc(OC)c(OC)cc4C3C1)NCC2 (stereo unspecified)
  outcome: inactive

## CN1CCC2CCCCN2CC1=O (stereo unspecified)
  pEC50: < 2.94
  pIC50: < 2.94

## COc1cc2oc(-c3ccc(O)cc3)cc(=O)c2c(OC)c1OC
  pEC50: 4.01
  pIC50: < 3.70

## CCOc1ccc(N=Nc2c(-c3ccccc3)nn(C(=O)CC(=O)Nc3ccccc3Cl)c2-c2ccccc2)cc1
  pEC50: < 4.48
  pIC50: < 4.48

## O=c1c(Sc2c(O)c3ccccc3c3ccccc3c2=O)c(O)c2ccccc2c2ccccc12
  outcome: inactive

## CC1=[N+]([O-])C(C)(C)N(O)C1(C)C
  pEC50: < 3.70
  pIC50: < 3.70

## CCCCCCCCCCCCC(=O)NCC(=O)NC(Cc1ccccc1)C(=O)Oc1ccc([N+](=O)[O-])cc1 (stereo unspecified)
  pEC50: < 3.70
  pIC50: 5.28

## Cc1cc2c(cc1C)C(=O)C1(C2)Cc2c(C)ccc(C)c2C1=O (stereo unspecified)
  pEC50: < 4.00
  pIC50: < 4.00

## CCC(OCc1ccccc1)/C(C)=C/CC(C)C=C(Br)Br (stereo unspecified)
  pEC50: < 3.03
  pIC50: 3.05

## Cc1cc(NC[C@H](O)[C@H](O)[C@H](O)CO)c(Sc2cc(=O)[nH]c(=O)[nH]2)cc1C
  outcome: inactive

## CC12CC3(C)CC(C)(C1)CC(C(NC(C)(C)C)C(=O)O)(C2)C3 (stereo unspecified)
  outcome: inactive

## COc1cc(NC=O)c2c(c1)SCCC(=O)N2
  pEC50: < 3.70
  pIC50: < 3.70

## CN1CCN(C(=S)N(C(=O)c2ccco2)c2ccccc2)CC1
  pEC50: < 3.12
  pIC50: < 3.12

## CCN(CC)CCOC(=O)OCCCCOC(=O)OCCN(CC)CC
  pEC50: < 3.70
  pIC50: < 3.70

## CCOC(=O)Nc1cc2c(c(N)n1)N=C(c1ccc(OC)cc1)CN2
  pEC50: < 4.96
  pIC50: 6.65

## Cc1ccc(/C=C2/NC(=S)SC2=O)cc1
  pEC50: < 3.70
  pIC50: 3.77

## Cc1c(Cc2ccccc2)n(COCCCN2C(=O)c3ccccc3C2=O)c(=O)[nH]c1=O
  pEC50: < 3.70
  pIC50: 4.58

## CCc1nnc2c3cc4ccccc4n3cnn12
  pEC50: < 3.82
  pIC50: < 3.82

## NC(=O)N/N=C1\CCCCc2ccccc21
  pEC50: < 3.70
  pIC50: < 3.70

## CC(=O)N[C@H]1CC2(C=C(Br)C(=O)C(Br)=C2)OC1=O
  pEC50: < 4.48
  pIC50: 5.29

## O=C1OI(C#Cc2ccccc2)c2ccccc21
  pEC50: < 4.70
  pIC50: 5.48

## Cn1cnc([N+](=O)[O-])c1Sc1n[nH]c(-c2ccc(Cl)cc2)n1
  pEC50: < 3.97
  pIC50: 5.17

## CC[Si](CC)(CC)OC(C#N)c1ccc2c(c1)OCO2 (stereo unspecified)
  outcome: inactive

## Cc1ccc(C2(O)c3ccccc3C(=O)N(C)C2(O)c2ccc(C)cc2)cc1 (stereo unspecified)
  pEC50: < 3.70
  pIC50: 4.89

## c1ccc([P+](CCOCC[P+](c2ccccc2)(c2ccccc2)c2ccccc2)(c2ccccc2)c2ccccc2)cc1
  pEC50: < 3.70
  pIC50: 4.31

## O=C(CNC(=O)OCc1ccccc1)NCCCCC(NC(=O)OCc1ccccc1)C(=O)O (stereo unspecified)
  pEC50: < 3.70
  pIC50: < 3.70

## O=C1C=C/C(=C/[C@H]2SSC=C[C@]23C=CC(=O)C3)C1
  pEC50: < 3.70
  pIC50: 5.58

## O=c1[nH]c(=O)n(C2CC(O)C(CO)O2)cc1COCC(F)(F)F (stereo unspecified)
  pEC50: < 3.60
  pIC50: < 3.60

## CCC(C)C(=O)c1c(O)c(CC=C(C)C)c2c3c(cc(=O)oc13)C(CC)O2 (stereo unspecified)
  pEC50: < 3.70
  pIC50: 4.60

## CC(C)(CN1CCCCC1)C(=O)CC(SCCS(=O)(=O)O)c1ccccc1 (stereo unspecified)
  pEC50: < 3.70
  pIC50: 5.48

## O=C(Nc1ccccc1)N1C(c2ccccc2)=N[C@@H](c2ccccc2)[C@@H]1c1ccccc1
  outcome: inactive

## CC(C)(C)OC(=O)NC(Cc1ccc(O)cc1)C(=O)N1CCCC1C(=O)O (stereo not drawn) (Boc-Tyr-Pro-OH; configuration not given here)
  pEC50: < 3.18
  pIC50: 3.57

## CSc1nc(-c2ccc(Cl)cc2)c(C#N)c(=O)n1C1OC(COC(C)=O)C(OC(C)=O)C(OC(C)=O)C1OC(C)=O (stereo unspecified)
  pEC50: < 3.88
  pIC50: 4.49 and 4.05

## O=C1CCCCC/C1=C\c1cccc(F)c1
  pEC50: < 3.70
  pIC50: < 4.00

## CCOC(=O)C(C(C)=O)C(c1ccc(N(C)C)cc1)C(C(C)=O)C(=O)OCC (stereo unspecified)
  pEC50: < 3.70
  pIC50: < 3.70

## O=C(Oc1cc(=O)c(OC(=O)c2ccccc2)co1)c1ccccc1
  pEC50: < 3.70
  pIC50: 3.96

## CCCCc1c2c(nc3c1CCc1cc4cc5c(nc4nc1-3)-c1nc3c(c(CCCC)c1CC5)CCC/C3=C\c1ccccc1)/C(=C/c1ccccc1)CCC2
  pEC50: < 5.71
  pIC50: < 5.71

## BrC12C3C4C5C(C(C43)C13OCCO3)C52 (stereo unspecified)
  pEC50: < 3.15
  pIC50: < 3.15

## c1ccc([P+](CC[P+](c2ccccc2)(c2ccccc2)c2ccccc2)(c2ccccc2)c2ccccc2)cc1
  pEC50: < 3.70
  pIC50: 5.21

## CC(=O)C1Cn2c(nc3ccccc32)C[Se]1 (stereo unspecified)
  outcome: inactive
